Activity calls are given as the source filed them. No rule for the calls is given here.
Tested on: CCRIS mutagenicity, Ames/micronucleus/aberration tests
Experiment: CCRIS mutagenicity studies

## Cc1nn(C)c(NC(=O)CNCCCN2CCCCC2C)c1C(=O)c1ccccc1F (configuration not stated)
Test System: AMES SALMONELLA TYPHIMURIUM, Strain/Indicator: TA98, Metabolic Activation: RAT, LIVER, S-9, AROCLOR 1254, Method: PREINCUBATION
  mutagenic call: active; positive
Test System: AMES SALMONELLA TYPHIMURIUM, Strain/Indicator: TA98, Metabolic Activation: RAT, LIVER, S-9, AROCLOR 1254, Method: STANDARD PLATE
  mutagenic call: inactive; negative
Test System: AMES SALMONELLA TYPHIMURIUM, Strain/Indicator: TA100, Metabolic Activation: RAT, LIVER, S-9, AROCLOR 1254, Method: PREINCUBATION
  mutagenic call: active; positive
Test System: AMES SALMONELLA TYPHIMURIUM, Strain/Indicator: TA100, Metabolic Activation: RAT, LIVER, S-9, AROCLOR 1254, Method: STANDARD PLATE
  mutagenic call: inactive; negative

## O=C(O)C1CCCN1 (configuration not stated)
Test System: AMES SALMONELLA TYPHIMURIUM, Strain/Indicator: TA98, Metabolic Activation: RAT LIVER S-9, CHLOROPHENE, Method: STANDARD PLATE (COMPOUND HEATED AT 250 DEGREES CELSIUS FOR 20 MIN)
  mutagenic call: active; positive

## CCC[C@@H]1C[C@@H](C(=O)N[C@@H]([C@H]2O[C@H](SC)[C@H](O)[C@@H](O)[C@H]2O)[C@@H](C)O)N(C)C1
End Point: AMES SALMONELLA TYPHIMURIUM, Test System: TA98, Metabolic Activation: NONE, Method: STANDARD PLATE
  mutagenic call: active; positive
End Point: AMES SALMONELLA TYPHIMURIUM, Test System: TA100, Metabolic Activation: NONE, Method: STANDARD PLATE
  mutagenic call: active; positive

— PubChem BioAssay AID1259407 (Chemical Carcinogenesis Research Information System (CCRIS), 2018)
